Values quoted from earlier work in patent publication US20260021122A1, “CANNABINOIDS AND USES THEREOF IN TREATMENT OF A DISEASE” (TECHNION RESEARCH & DEVELOPMENT FOUNDATION LIMITED, priority 2022, published 2026).

Experiments:
MDSCs = details: one study, literature; cited from earlier work
[1] = test system: triple-negative breast cancer; details: conditioned media from CBD-treated cancer cells, literature; cited from earlier work

SMILES | antitumor effects (MDSCs) | suppressive immune cell population of MDSCs (MDSCs) | levels of CCL3 [1] | levels of Granulocyte-macrophage (GM)-CSF [1]
CCCCC/C=C\C/C=C\C/C=C\C/C=C\CCCC(=O)OC(CO)CO [2-AG, 2-arachidonoylglycerol] | exhibits direct antitumor effects | increasing the suppressive immune cell population of MDSCs | – | –
C=C(C)[C@@H]1CCC(C)=C[C@H]1c1c(O)cc(CCCCC)cc1O [CBD, Cannabidiol] | – | – | lowered the levels | lowered the levels
